The record followed here is patent publication US10851129B2, “Composition, crocins active site, and uses thereof” (Jinan University, priority 2016, dated 2020).

In this experiment the test system is SH-SY5Y nerve cells. The experiment in a line: Neuroprotection in SH-SY5Y cell damage model induced by L-glutamic acid (MTT). The format is cell-based. The following applies: L-glutamic acid 160 mM, 24 h, effective rate %. On the procedure: SH-SY5Y nerve cells were cultured in DMEM medium (containing 5% fetal calf serum by volume fraction) which were placed in an incubator containing 5% CO2 under 37° C. They were subcultured once every 3-4 days. Cells in logarithmic phase were used for test
SH-SY5Y cells were inoculated in a 96-well plate at a concentration of 5×10^3 and continued to culture for 24 h. […] 3 parallel wells were arranged for each concentration. They were continued to culture for 24 h. 24 h later, the supernatant was pipetted out and discarded. 100 μL MTT (0.5 mg/mL) was added into each well. They were further incubated for 4 h. Then the supernatant was pipetted out and discarded. 150 μL DMSO was added into each well. They were vibrated for 10 min. A wavelength of 570 nm was selected. The absorbance value was measured on a microplate reader^[13]. (effective rate %=(ODdrug−ODmodel)/(ODcontrol−ODmodel)*100).

`CC(/C=C/C=C(\C)C(=O)O[C@@H]1OC(CO)[C@@H](O)C(O)C1O)=C\C=C\C=C(C)\C=C\C=C(/C)C(=O)O[C@@H]1OC(CO[C@@H]2OC(CO)[C@@H](O)C(O)C2O)[C@@H](O)C(O)C1O` (stereo partly drawn) [Compound 2, crocetin-β-D-glucopyranosyl-β-D-gentiobioside]: the “Neuroprotective effective rate (recovery of viability relative to glutamate model)” value came to 0.00 ± 0.00% (drug 10^−5 moL/L), 0.00 ± 0.00% (drug 10^−6 moL/L) and 0.00 ± 0.00% (drug 10^−7 moL/L).

Turning to `CC(/C=C/C=C(\C)C(=O)O[C@@H]1OC(CO)[C@@H](O)C(O)C1O)=C\C=C\C=C(C)\C=C\C=C(/C)C(=O)O[C@@H]1OC(CO)[C@@H](O)C(O)C1O` (stereo partly drawn) [Compound 3, crocetin di-β-D-glucopyranoside], the “Neuroprotective effective rate (recovery of viability relative to glutamate model)” value is 0.00 ± 0.00% (drug 10^−5 moL/L), 0.00 ± 0.00% (drug 10^−6 moL/L) and 0.00 ± 0.00% (drug 10^−7 moL/L).

With `CC(/C=C/C=C(\C)C(=O)O[C@@H]1O[C@H](CO[C@@H]2O[C@H](CO)[C@@H](O)[C@H](O)[C@H]2O)[C@@H](O)[C@H](O)[C@H]1O)=C\C=C\C=C(C)\C=C\C=C(/C)C(=O)O[C@@H]1[C@H](O)C[C@@](O)(C(=O)O)C[C@H]1OC(=O)/C=C/c1ccc(O)c(O)c1` [Compound 5, neocrocin B], the “Neuroprotective effective rate (recovery of viability relative to glutamate model)” value by setting is: (drug 10^−5 moL/L) 40.03 ± 3.91 %; (drug 10^−6 moL/L) 27.63 ± 5.36 %; (drug 10^−7 moL/L) 9.89 ± 2.93%.

In the case of `CC(/C=C/C=C(\C)C(=O)O)=C\C=C\C=C(C)\C=C\C=C(/C)C(=O)O[C@@H]1OC(CO)[C@@H](O)C(O)C1O` (stereo partly drawn) [Compound 9, crocetin mono-β-D-glucopyranoside], the “Neuroprotective effective rate (recovery of viability relative to glutamate model)” value by setting is: (drug 10^−5 moL/L) 0.00 ± 0.00%; (drug 10^−6 moL/L) 0.00 ± 0.00%; (drug 10^−7 moL/L) 0.00 ± 0.00%.
